Experimental findings from PMC7180948, “New Insights into 4-Anilinoquinazolines as Inhibitors of Cardiac Troponin I–Interacting Kinase (TNNi3K)” (Molecules, 2020) are described below.

What all share (experiment): biochemical
Holding throughout (design): KINOMEscan competition binding panel (Eurofins DiscoverX), single concentration, percent inhibition
Conditions in all cases: read-out: 15 at 1 µM % inhibition

For one test, the target named is CDK3 (Homo sapiens, UniProt Q00526). Summed up: (§1)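 Values come from single-concentration (1 µM) profiling in the Eurofins DiscoverX KINOMEscan competition-binding platform, which covers over 400 kinases.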
Sequence of CDK3 (Q00526 whole entry): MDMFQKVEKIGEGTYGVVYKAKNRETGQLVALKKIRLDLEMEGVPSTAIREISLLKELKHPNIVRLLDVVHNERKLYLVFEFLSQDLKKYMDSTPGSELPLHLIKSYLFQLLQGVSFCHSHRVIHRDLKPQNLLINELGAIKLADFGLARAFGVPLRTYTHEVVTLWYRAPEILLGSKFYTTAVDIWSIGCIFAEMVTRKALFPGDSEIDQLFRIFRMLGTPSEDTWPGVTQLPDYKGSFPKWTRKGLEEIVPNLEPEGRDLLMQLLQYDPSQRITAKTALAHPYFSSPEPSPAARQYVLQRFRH
In a further test the target is T1, MEK2 (Homo sapiens, UniProt P36507).
T1 construct: gene MAP2K2
Summed up: as §1

The target in a further test is CSNK1G1 (Homo sapiens, UniProt Q9HCP0). Summed up:
as §1

The next test concerns the target CAMK4 (Homo sapiens, UniProt Q16566). Summed up: as §1
The target of another test is T2, PIK4CB (Homo sapiens, UniProt Q9UBF8).
T2 construct: gene PI4KB
Summed up: as §1

Test [1] concerns the target T3, RSK2(Kin.Dom.2-C-terminal) (Homo sapiens, UniProt P51812).
T3 construct: gene RPS6KA3; Kin.Dom.2-C-terminal
Summed up: as §1

The next test concerns the target MARK1 (Homo sapiens, UniProt Q9P0L2). The gist of the method:
as §1

In test [2] the target is T4, ABL1(H396P)-nonphosphorylated (Homo sapiens, UniProt P00519, H396P).
T4 construct: nonphosphorylated
The gist of the method: as §1

In a further test the target is FGR (Homo sapiens, UniProt P09769). The gist of the method: as §1
In another test the target is ACVR2B (Homo sapiens, UniProt Q13705). The gist of the method: as §1
Sequence of ACVR2B (Q13705 whole entry): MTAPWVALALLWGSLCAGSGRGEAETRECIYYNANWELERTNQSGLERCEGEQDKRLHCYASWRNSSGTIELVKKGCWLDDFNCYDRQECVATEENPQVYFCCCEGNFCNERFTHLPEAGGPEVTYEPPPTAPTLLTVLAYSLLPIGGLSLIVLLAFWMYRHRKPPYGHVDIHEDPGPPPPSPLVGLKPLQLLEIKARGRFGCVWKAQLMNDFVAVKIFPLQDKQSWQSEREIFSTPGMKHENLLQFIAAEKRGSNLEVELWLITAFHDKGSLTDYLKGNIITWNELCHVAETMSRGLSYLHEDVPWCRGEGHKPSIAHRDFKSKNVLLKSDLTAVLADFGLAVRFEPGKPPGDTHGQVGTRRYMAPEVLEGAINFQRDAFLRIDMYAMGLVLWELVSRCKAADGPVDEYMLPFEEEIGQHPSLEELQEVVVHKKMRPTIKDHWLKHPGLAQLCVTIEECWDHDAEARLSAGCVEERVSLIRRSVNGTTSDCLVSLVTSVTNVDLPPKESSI
Test [3] has as its target T5, RSK1(Kin.Dom.1-N-terminal) (Homo sapiens, UniProt Q15418).
T5 construct: gene RPS6KA1; Kin.Dom.1-N-terminal
Summed up: as §1

The target of the next test is MAST1 (Homo sapiens, UniProt Q9Y2H9). The gist of the method:
as §1

For the next test, the target named is T6, p38-alpha (Homo sapiens, UniProt Q16539).
T6 construct: gene MAPK14
T6 sequence (Q16539 whole entry): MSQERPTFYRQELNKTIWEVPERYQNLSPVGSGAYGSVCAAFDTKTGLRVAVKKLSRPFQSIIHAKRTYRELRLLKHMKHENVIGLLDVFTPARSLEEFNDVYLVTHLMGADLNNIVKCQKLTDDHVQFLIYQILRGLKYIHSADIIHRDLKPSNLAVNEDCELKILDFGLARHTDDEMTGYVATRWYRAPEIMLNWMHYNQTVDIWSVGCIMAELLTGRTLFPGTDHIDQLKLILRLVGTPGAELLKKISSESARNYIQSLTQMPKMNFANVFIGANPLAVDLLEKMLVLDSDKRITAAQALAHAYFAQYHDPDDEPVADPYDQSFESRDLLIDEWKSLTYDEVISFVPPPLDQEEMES
The gist of the method:
as §1

The next test addresses WEE1 (Homo sapiens, UniProt P30291). Summed up:
as §1

The target in a further test is EPHB2 (Homo sapiens, UniProt P29323). The gist of the method: as §1
Another test concerns the target T7, MLK2 (Homo sapiens, UniProt Q02779).
T7 construct: gene MAP3K10
Summed up: as §1

The next test concerns the target ANKK1 (Homo sapiens, UniProt Q8NFD2). Summed up:
as §1

The target of a further test is T8, CDC2L2 (Homo sapiens, UniProt Q9UQ88).
T8 construct: gene CDK11A
Summed up: as §1

The next test concerns the target NEK10 (Homo sapiens, UniProt Q6ZWH5). The gist of the method: as §1
A further test concerns the target T9, MRCKB (Homo sapiens, UniProt Q9Y5S2).
T9 construct: gene CDC42BPB
Summed up: as §1

The next test addresses MYLK (Homo sapiens, UniProt Q15746). The gist of the method: as §1
Another test deals with LIMK1 (Homo sapiens, UniProt P53667). The gist of the method:
as §1

In another test the target is PIM2 (Homo sapiens, UniProt Q9P1W9). The gist of the method: as §1
Sequence of PIM2 (Q9P1W9 whole entry): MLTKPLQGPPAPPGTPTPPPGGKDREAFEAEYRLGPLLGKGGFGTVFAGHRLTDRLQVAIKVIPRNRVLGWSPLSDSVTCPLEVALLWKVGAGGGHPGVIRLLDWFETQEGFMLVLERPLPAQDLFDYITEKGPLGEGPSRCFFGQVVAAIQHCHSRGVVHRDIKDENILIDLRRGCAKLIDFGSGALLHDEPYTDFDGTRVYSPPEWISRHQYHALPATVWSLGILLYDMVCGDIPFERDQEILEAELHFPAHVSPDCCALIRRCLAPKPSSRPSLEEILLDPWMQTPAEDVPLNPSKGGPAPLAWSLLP
A further test has as its target T10, PAK7 (Homo sapiens, UniProt Q9P286).
T10 construct: gene PAK5
The gist of the method: as §1

Sequence of CAMK4 (Q16566 whole entry): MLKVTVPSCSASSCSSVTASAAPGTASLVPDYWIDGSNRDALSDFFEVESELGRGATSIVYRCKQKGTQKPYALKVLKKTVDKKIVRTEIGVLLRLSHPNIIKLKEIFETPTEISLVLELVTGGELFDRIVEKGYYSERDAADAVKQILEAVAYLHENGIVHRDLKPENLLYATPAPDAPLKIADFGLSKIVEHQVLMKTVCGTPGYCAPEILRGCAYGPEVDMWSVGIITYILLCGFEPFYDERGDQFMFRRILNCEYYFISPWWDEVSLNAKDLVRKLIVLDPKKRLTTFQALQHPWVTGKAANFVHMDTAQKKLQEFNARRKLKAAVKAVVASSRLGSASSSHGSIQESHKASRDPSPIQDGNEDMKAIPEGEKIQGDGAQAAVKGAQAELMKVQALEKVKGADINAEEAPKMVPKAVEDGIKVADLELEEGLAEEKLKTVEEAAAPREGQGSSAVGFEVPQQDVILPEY
Sequence of MAST1 (Q9Y2H9 whole entry): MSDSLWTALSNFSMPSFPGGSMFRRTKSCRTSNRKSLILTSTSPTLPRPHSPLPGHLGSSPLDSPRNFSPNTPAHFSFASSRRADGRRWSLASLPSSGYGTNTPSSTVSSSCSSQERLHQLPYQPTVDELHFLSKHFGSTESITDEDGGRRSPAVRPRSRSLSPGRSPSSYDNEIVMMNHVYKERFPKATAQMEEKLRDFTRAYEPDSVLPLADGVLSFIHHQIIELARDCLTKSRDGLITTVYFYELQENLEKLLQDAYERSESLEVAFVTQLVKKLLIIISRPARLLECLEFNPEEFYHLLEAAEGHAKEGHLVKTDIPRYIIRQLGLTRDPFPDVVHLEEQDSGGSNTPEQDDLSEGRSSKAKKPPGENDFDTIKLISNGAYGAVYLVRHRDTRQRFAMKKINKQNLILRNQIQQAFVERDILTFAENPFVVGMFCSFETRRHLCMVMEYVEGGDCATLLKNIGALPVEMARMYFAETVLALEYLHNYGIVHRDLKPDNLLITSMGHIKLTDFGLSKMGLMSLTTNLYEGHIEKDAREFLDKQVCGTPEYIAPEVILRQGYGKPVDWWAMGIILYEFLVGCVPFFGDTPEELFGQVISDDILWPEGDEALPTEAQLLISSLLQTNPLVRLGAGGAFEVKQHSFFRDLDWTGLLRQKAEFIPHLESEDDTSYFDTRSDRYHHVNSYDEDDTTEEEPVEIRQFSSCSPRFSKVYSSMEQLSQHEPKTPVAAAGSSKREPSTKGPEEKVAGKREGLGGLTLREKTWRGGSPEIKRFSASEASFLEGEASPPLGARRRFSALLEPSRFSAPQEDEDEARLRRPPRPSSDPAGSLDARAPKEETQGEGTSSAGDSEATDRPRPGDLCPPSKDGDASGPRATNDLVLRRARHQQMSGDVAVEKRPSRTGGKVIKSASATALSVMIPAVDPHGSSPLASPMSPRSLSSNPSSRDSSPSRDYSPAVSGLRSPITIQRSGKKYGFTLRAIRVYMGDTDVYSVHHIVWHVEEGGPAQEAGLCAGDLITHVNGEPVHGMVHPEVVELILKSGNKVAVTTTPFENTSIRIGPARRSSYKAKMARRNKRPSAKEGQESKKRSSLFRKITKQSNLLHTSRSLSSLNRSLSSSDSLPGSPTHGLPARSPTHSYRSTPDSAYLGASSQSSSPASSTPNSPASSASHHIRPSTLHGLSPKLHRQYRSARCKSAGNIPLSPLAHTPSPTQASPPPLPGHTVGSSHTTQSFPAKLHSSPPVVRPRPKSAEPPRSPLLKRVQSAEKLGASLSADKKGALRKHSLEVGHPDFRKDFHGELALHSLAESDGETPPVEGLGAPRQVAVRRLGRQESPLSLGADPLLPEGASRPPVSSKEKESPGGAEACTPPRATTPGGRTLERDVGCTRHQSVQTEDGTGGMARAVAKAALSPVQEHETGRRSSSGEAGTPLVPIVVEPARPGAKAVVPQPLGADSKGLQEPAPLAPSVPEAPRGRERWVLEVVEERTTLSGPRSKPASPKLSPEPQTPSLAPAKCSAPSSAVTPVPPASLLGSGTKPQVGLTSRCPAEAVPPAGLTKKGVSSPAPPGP
T10 sequence (Q9P286 whole entry): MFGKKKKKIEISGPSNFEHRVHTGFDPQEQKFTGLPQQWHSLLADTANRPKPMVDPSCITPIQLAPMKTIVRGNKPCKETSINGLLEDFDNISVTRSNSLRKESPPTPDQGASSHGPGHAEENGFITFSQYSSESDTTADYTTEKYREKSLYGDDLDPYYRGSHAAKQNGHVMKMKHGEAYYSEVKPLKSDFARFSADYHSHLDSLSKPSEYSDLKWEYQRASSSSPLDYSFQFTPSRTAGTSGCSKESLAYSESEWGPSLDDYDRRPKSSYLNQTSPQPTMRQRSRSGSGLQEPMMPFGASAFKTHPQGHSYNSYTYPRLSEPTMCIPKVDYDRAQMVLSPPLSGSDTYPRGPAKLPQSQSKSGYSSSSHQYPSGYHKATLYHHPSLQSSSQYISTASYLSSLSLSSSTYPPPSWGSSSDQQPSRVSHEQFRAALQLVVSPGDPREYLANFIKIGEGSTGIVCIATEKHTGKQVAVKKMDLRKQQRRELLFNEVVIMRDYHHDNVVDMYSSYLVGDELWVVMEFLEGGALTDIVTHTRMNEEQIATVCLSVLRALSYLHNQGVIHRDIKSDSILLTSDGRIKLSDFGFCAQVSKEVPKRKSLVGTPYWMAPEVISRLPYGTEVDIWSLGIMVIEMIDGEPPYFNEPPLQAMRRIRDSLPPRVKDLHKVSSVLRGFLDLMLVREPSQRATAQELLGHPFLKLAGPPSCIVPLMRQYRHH
Sequence of ANKK1 (Q8NFD2 whole entry): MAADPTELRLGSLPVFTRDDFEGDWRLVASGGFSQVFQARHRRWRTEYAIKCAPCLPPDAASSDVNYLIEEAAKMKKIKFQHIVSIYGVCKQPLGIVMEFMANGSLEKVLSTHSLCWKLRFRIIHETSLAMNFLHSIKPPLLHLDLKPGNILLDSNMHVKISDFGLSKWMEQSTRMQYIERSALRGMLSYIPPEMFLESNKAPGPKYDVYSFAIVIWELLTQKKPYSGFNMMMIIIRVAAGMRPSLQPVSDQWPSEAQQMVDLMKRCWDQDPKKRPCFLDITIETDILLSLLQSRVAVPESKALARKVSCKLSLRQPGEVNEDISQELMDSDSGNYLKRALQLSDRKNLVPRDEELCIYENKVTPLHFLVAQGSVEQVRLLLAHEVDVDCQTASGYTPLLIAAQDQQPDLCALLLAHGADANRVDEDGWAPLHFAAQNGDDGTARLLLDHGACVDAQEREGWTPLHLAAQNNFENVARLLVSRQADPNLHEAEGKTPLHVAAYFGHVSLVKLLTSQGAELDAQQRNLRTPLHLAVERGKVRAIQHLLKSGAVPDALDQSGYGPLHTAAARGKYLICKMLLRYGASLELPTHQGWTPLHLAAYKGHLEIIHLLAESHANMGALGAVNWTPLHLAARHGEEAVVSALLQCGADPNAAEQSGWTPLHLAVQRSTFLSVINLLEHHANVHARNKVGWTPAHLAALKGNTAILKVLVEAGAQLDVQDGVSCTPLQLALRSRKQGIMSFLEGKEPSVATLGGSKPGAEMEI

For the compound `CNS(=O)(=O)c1ccc(N(C)C)c(Nc2nc(C)nc3cc(OC)c(OC)cc23)c1` [compound 15, 3-((6,7-dimethoxy-2-methylquinazolin-4-yl)amino)-4-(dimethylamino)-N-methylbenzenesulfonamide], the inhibition at 1 µM on CDK3 came out at 56%; at MEK2 it was 10%; at CSNK1G1, 0%; on CAMK4, 1%; at PIK4CB, 12%; in test [1], 16%. Besides, the inhibition at 1 µM was 0% at MARK1; 31% in [2]; 0% at FGR; 0% at ACVR2B; 0% in test [3]; 14% on MAST1. Besides, the inhibition at 1 µM at p38-alpha is 0%; at WEE1 it was 7%; at EPHB2, 2%; on MLK2, 0%; on ANKK1, 24%; on CDC2L2, 0%. For the same compound, the inhibition at 1 µM on NEK10 is 0%; at MRCKB, 1%; on MYLK, 0%; at LIMK1 it was 0%; at PIM2, 0%; on PAK7, 0%.

Broadly, the inhibition is the relative decrease from the control value, in per cent.
